Some results are limits rather than exact numbers.

Series [1] in a line: Clearance in Wistar rat at 6 mg/kg, iv administered as a single bolus dose. More on the design: dose 6 mg/kg, route intravenous. The class given is ADME, organism-based. The note with it: in vivo.
The target of series [2] is Cytochrome P450 2C19 (Homo sapiens, UniProt P33261). The experiment in a line: Inhibition of human recombinant CYP2C19. The class given is ADME.
Series [3] can be described thus: Clearance in nude mouse. The class given is ADME, organism-based. The note with it: in vivo.
Series [4] is described as follows: Volume of distribution in rat at 1 and 5 mg/kg, iv administered as bolus dose. Conditions: in vivo. More on the design: dose 5 mg/kg, route intravenous. The class given is ADME, organism-based.
Series [5] deals with T1, Kinesin-like protein KIF23 (Homo sapiens, UniProt Q02241).
T1 sequence (Q02241 whole entry): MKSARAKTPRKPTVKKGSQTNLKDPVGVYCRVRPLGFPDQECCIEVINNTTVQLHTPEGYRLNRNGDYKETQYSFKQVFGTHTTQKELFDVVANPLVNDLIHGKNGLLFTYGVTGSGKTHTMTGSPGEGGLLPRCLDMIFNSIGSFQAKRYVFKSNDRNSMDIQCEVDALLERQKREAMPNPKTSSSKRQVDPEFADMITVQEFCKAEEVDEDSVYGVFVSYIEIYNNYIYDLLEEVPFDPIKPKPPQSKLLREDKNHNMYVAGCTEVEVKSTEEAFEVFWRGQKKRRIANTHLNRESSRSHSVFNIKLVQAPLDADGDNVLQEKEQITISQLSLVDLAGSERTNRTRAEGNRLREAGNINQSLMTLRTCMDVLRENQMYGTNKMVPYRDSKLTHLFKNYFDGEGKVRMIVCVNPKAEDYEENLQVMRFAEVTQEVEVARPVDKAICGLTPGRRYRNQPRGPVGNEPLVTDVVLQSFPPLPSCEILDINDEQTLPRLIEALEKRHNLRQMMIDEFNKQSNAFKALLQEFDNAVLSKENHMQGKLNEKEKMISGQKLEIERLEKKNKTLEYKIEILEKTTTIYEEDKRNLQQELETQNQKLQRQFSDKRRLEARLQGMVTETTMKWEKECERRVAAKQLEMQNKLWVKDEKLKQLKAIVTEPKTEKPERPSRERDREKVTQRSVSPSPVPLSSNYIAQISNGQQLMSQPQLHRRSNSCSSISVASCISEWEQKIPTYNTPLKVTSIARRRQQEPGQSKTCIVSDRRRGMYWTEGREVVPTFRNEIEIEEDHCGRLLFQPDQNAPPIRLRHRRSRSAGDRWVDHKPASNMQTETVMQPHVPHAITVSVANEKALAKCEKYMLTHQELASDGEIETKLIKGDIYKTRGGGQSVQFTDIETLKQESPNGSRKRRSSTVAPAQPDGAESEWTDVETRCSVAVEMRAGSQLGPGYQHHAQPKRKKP
As to the kind of experiment: Inhibition of human recombinant GST-MKLP1 after 20 mins by malachite green assay.

The subject of series [6] is Rattus norvegicus. As to the kind of experiment: Hepatic blood flow in rat at 1 and 5 mg/kg, iv administered as bolus dose. The class given is ADME, organism-based, Liver. Also on record: dose 5 mg/kg, route intravenous. The note with it: in vivo.
Series [7] can be described thus: Plasma concentration in Hans Wistar rat hollow fiber model implanted with human COLO205 cells at 6 mg/kg, iv after 24 hrs. The class given is ADME, organism-based, COLO 205. More on the design: dose 6 mg/kg, route intravenous.
The subject of series [8] is Liver microsomes. The experiment in a line: Intrinsic clearance in Wistar rat liver microsomes at 2 uM. The class given is ADME, Microsome. On the technique in general: Microsomes from liver hold many membrane-bound enzymes, among them those of drug oxidation.
Series [9] is described as follows: Clearance in Wistar rat. The class given is ADME, organism-based. The note with it: in vivo.
Series [10] in a line: Volume of distribution at steady state in Wistar rat at 6 mg/kg, iv administered as a single bolus dose. The note with it: in vivo, read-out: Vdss. The class given is ADME, organism-based. More on the design: dose 6 mg/kg, route intravenous.
Series [11] concerns the target Cytochrome P450 2D6 (Homo sapiens, UniProt P10635). The experiment in a line: Inhibition of human recombinant CYP2D6. The class given is ADME.
Series [12] can be described thus: Half-life in Wistar rat at 6 mg/kg, iv administered as a single bolus dose. The class given is ADME, organism-based. More on the design: dose 6 mg/kg, route intravenous. Conditions: in vivo.
In series [13] the test system is Liver. The experiment in a line: Intrinsic clearance in Wistar rat hepatocytes at 2 uM. The class given is ADME, cell-based, Hepatocyte.
A short description of series [14]: Initial plasma concentration in Wistar rat at 6 mg/kg, iv administered as a single bolus dose. The class given is ADME, organism-based. Also on record: dose 6 mg/kg, route intravenous.

Cytochrome P450 2D6, sequence (P10635 whole entry): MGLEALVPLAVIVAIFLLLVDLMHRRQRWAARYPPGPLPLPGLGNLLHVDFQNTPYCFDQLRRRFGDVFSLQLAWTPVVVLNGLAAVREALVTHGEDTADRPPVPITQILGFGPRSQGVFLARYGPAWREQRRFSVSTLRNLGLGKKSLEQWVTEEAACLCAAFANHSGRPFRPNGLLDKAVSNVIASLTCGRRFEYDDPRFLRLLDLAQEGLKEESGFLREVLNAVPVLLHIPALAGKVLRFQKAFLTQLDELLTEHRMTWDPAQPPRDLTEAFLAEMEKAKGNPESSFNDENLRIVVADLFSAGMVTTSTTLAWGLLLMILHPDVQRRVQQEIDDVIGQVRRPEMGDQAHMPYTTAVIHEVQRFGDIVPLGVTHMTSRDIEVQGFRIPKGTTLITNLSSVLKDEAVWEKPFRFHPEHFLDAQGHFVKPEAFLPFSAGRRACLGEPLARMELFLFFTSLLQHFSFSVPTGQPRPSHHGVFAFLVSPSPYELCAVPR
Cytochrome P450 2C19, sequence (P33261 whole entry): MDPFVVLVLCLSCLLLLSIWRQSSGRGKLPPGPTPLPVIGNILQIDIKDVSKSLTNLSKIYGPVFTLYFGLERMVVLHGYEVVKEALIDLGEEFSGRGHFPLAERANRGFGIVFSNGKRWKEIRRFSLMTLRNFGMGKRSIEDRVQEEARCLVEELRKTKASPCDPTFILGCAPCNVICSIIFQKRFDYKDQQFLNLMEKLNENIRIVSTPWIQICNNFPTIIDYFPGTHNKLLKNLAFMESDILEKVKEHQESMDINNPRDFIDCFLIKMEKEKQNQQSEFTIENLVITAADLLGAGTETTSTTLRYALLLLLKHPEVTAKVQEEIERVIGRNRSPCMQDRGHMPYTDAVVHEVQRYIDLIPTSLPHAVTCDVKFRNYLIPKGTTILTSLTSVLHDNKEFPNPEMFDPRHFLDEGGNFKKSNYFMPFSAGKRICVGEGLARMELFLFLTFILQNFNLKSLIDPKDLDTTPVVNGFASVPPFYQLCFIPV

As for `Cc1ccc(C(=O)N(CCCN)C(c2nc3snc(C)c3c(=O)n2Cc2ccccc2)C(C)C)cc1` (single isomer, unassigned; (+)) [AZD-4877], the clearance in series [1] was 36 mL/min/kg; in series [3] it was 17 mL/min/kg; in [8], less than 10 µL/min/mg; in [9], 36 mL/min/kg. Moreover, the half-inhibitory concentration (IC50) (commonly the concentration at which inhibition is half-maximal) in series [2] was greater than 10 µM; in series [5], 50 µM; in series [11] it was greater than 10 µM. Besides, the Vd in series [4] and in series [10] was 10 L/kg throughout. This compound gave a QH in [6] of 50%. Besides, in [7], the concentration at 24 h was found to be 2.8 ng/mL. Moreover, the half-life (usually the time in which the quantity being followed falls by half) in [12] is 3.5 h. In [13], this compound displayed a CL of 4 µL/min. The C0 in [14] came out at 1080 ng/mL.
